Literature values in US20100144679A1, “MEDICATION KITS AND FORMULATIONS FOR PREVENTING, TREATING OR REDUCING SECONDARY FRACTURES AFTER PREVIOUS FRACTURE” (DUKE UNIVERSITY, priority 2007, published 2010).

Experiments:
[1] = patients with reduced creatinine clearances
bone resorption [2] = tested on: bone resorption
bone resorption [3] = tested on: bone resorption; remark: listed apart in the source

| Compound | fall rates [1] | concentrations at which bone resorption is inhibited in vitro (bone resorption [2]) [nM] | untoward effects on bone formation or mineralization (bone resorption [3]; at the concentrations and doses that inhibit bone resorption) | doses at which bone resorption is inhibited in vivo (bone resorption [3]; in vivo) [µg/kg] |
| --- | --- | --- | --- | --- |
| C=C1/C(=C\C=C2/CCC[C@]3(C)[C@@H]([C@H](C)CCCC(C)(C)O)CC[C@@H]23)C[C@@H](O)C[C@@H]1O [calcitriol] | reduces fall rates |  |  |  |
| O=P(O)(O)C(O)(Cn1ccnc1)P(=O)(O)O [zoledronic acid, 1-hydroxy-2-(imidazol-1-yl)ethane-1,1-d-iphosphonic acid] |  | 0.3 to 30 | without exerting any untoward effects on either bone formation or mineralization | 0.3 to 30 |
